This note sets out measurements from the NIST ThermoML archive (doi:10.1021/acs.jced.5b00980).

For data set [1] the following is noted: for mass density: 101.33 kPa, Liquid, Vibrating tube method.
Data set [2] in a line: activity coefficient (dimensionless); of the first substance listed, at infinite dilution; xn = mol fraction of the nth substance listed. The note with it: 100 kPa, Liquid, Chromatography, x1 = 0.

± gives the expanded uncertainty stated by the source.

In general, mass density refers to mass per unit of volume. For the compound `CCCC[P+](CC)(CCCC)CCCC.CCOP(=O)([O-])OCC` [tributylethylphosphonium diethylphosphate], the mass density is reported as 996.1 ± 10 kg/m3 in data set [1] (298.15 K); 992.58 ± 10 kg/m3 in data set [1] (303.15 K); 989.06 ± 10 kg/m3 in data set [1] (308.15 K); 985.55 ± 10 kg/m3 in data set [1] (313.15 K); 982.04 ± 10 kg/m3 in data set [1] (318.15 K); 978.53 ± 10 kg/m3 in data set [1] (323.15 K). For the same compound, the mass density in data set [1] (328.15 K) amounted to 975.03 ± 10 kg/m3; in data set [1] (333.15 K) it was 971.53 ± 10 kg/m3; in data set [1] (338.15 K), 968.03 ± 10 kg/m3; in data set [1] (343.15 K), 964.53 ± 10 kg/m3; in data set [1] (348.15 K) it was 961.01 ± 10 kg/m3; in data set [1] (353.15 K), 957.5 ± 10 kg/m3. Moreover, the mass density in data set [1] (358.15 K) was 954 ± 10 kg/m3; in data set [1] (363.15 K) it was 950.49 ± 10 kg/m3; in data set [1] (368.15 K), 946.98 ± 10 kg/m3. In data set [1] (Glass, DSC), the Glass transition temperature is -71.34 ± 1 °C.
Consider `Cc1ccc(C)cc1` [1,4-dimethylbenzene] + CCCC[P+](CC)(CCCC)CCCC.CCOP(=O)([O-])OCC, for which the activity coefficient in data set [2] (328.15 K) was 1.64 ± 0.11; in data set [2] (338.15 K), 1.61 ± 0.11; in data set [2] (348.15 K), 1.59 ± 0.11; in data set [2] (358.15 K), 1.57 ± 0.1; in data set [2] (368.15 K), 1.55 ± 0.1.
Turning to `CCO` [ethanol] + CCCC[P+](CC)(CCCC)CCCC.CCOP(=O)([O-])OCC, the activity coefficient was 0.035 in data set [2] (338.15 K), 0.038 in data set [2] (348.15 K), 0.042 in data set [2] (358.15 K) and 0.045 in data set [2] (368.15 K).
`COC(C)(C)C` [2-methoxy-2-methylpropane] + CCCC[P+](CC)(CCCC)CCCC.CCOP(=O)([O-])OCC: the activity coefficient in data set [2] (328.15 K) turned out to be 1.89 ± 0.13; in data set [2] (338.15 K), 1.86 ± 0.13; in data set [2] (348.15 K), 1.84 ± 0.12; in data set [2] (358.15 K) it was 1.82 ± 0.12; in data set [2] (368.15 K), 1.8 ± 0.12.
With `CCCCCCCC` [octane] + CCCC[P+](CC)(CCCC)CCCC.CCOP(=O)([O-])OCC, the activity coefficient worked out at 4.87 ± 0.33 in data set [2] (328.15 K); 4.74 ± 0.32 in data set [2] (338.15 K); 4.6 ± 0.31 in data set [2] (348.15 K); 4.47 ± 0.3 in data set [2] (358.15 K); 4.37 ± 0.3 in data set [2] (368.15 K).
The matching figures for `C1CCCCCC1` [cycloheptane] + CCCC[P+](CC)(CCCC)CCCC.CCOP(=O)([O-])OCC: 2.48 ± 0.17, 2.42 ± 0.16, 2.37 ± 0.16, 2.32 ± 0.16 and 2.27 ± 0.15.
The matching figures for `CCCCCCCCC` [nonane] + CCCC[P+](CC)(CCCC)CCCC.CCOP(=O)([O-])OCC: 5.79 ± 0.39, 5.6 ± 0.38, 5.43 ± 0.37, 5.27 ± 0.36 and 5.13 ± 0.35.
The like results for `CCC(C)CC` [3-methylpentane] + CCCC[P+](CC)(CCCC)CCCC.CCOP(=O)([O-])OCC were, in that order, 3.17 ± 0.22, 3.12 ± 0.21, 3.07 ± 0.21, 3.02 ± 0.21 and 2.98 ± 0.2.
Consider `C#CCCCC` [1-hexyne] + CCCC[P+](CC)(CCCC)CCCC.CCOP(=O)([O-])OCC, for which the activity coefficient was found to be 0.849 ± 0.054 in data set [2] (328.15 K); 0.893 ± 0.057 in data set [2] (338.15 K); 0.936 ± 0.059 in data set [2] (348.15 K); 0.979 ± 0.061 in data set [2] (358.15 K); 1.02 ± 0.06 in data set [2] (368.15 K).
For `O` [water] + CCCC[P+](CC)(CCCC)CCCC.CCOP(=O)([O-])OCC, the activity coefficient in data set [2] (328.15 K) was found to be 0.101 ± 0.03; in data set [2] (338.15 K), 0.105 ± 0.03; in data set [2] (348.15 K), 0.109 ± 0.03; in data set [2] (358.15 K), 0.112 ± 0.03; in data set [2] (368.15 K), 0.116 ± 0.03.
The matching figures for `C=CCCCCCCCC` [1-decene] + CCCC[P+](CC)(CCCC)CCCC.CCOP(=O)([O-])OCC: 5.2 ± 0.35, 5.06 ± 0.34, 4.93 ± 0.34, 4.81 ± 0.33 and 4.69 ± 0.32.
The like results for `CC(C)OC(C)C` [diisopropyl ether] + CCCC[P+](CC)(CCCC)CCCC.CCOP(=O)([O-])OCC were, in that order, 2.82 ± 0.19, 2.75 ± 0.19, 2.69 ± 0.18, 2.65 ± 0.18 and 2.59 ± 0.18.
The like results for `C#CCCCCCC` [1-octyne] + CCCC[P+](CC)(CCCC)CCCC.CCOP(=O)([O-])OCC were, in that order, 1.17 ± 0.07, 1.22 ± 0.08, 1.28 ± 0.08, 1.33 ± 0.09 and 1.38 ± 0.09.
On to `Cc1ccccc1C` [1,2-dimethylbenzene] + CCCC[P+](CC)(CCCC)CCCC.CCOP(=O)([O-])OCC, for which the activity coefficient in data set [2] (328.15 K) stood at 1.55 ± 0.1; in data set [2] (338.15 K), 1.52 ± 0.1; in data set [2] (348.15 K) it was 1.5 ± 0.1; in data set [2] (358.15 K), 1.47 ± 0.1; in data set [2] (368.15 K) it was 1.45 ± 0.1.
Consider `C=Cc1ccccc1` [styrene] + CCCC[P+](CC)(CCCC)CCCC.CCOP(=O)([O-])OCC, for which the activity coefficient in data set [2] (328.15 K) was found to be 0.971 ± 0.061; in data set [2] (338.15 K), 0.975 ± 0.061; in data set [2] (348.15 K), 0.98 ± 0.061; in data set [2] (358.15 K), 0.983 ± 0.062; in data set [2] (368.15 K), 0.987 ± 0.062.
The like results for `CCCCCC` [hexane] + CCCC[P+](CC)(CCCC)CCCC.CCOP(=O)([O-])OCC were, in that order, 3.4 ± 0.23, 3.33 ± 0.23, 3.26 ± 0.22, 3.21 ± 0.22 and 3.15 ± 0.21.
The like results for `C1CCCC1` [cyclopentane] + CCCC[P+](CC)(CCCC)CCCC.CCOP(=O)([O-])OCC were, in that order, 1.83 ± 0.12, 1.8 ± 0.12, 1.77 ± 0.12, 1.74 ± 0.12 and 1.71 ± 0.11.
On to `C=CCCCCC` [1-heptene] + CCCC[P+](CC)(CCCC)CCCC.CCOP(=O)([O-])OCC, for which the activity coefficient in data set [2] (328.15 K) was 3.06 ± 0.21; in data set [2] (338.15 K), 3.01 ± 0.2; in data set [2] (348.15 K) it was 2.97 ± 0.2; in data set [2] (358.15 K), 2.93 ± 0.2; in data set [2] (368.15 K) it was 2.89 ± 0.2.
The like results for `C1COCCO1` [1,4-dioxane] + CCCC[P+](CC)(CCCC)CCCC.CCOP(=O)([O-])OCC were, in that order, 1.08 ± 0.07, 1.06 ± 0.07, 1.05 ± 0.07, 1.03 ± 0.06 and 1.02 ± 0.06.
The like results for `CC1CCCCC1` [methylcyclohexane] + CCCC[P+](CC)(CCCC)CCCC.CCOP(=O)([O-])OCC were, in that order, 2.62 ± 0.18, 2.57 ± 0.17, 2.52 ± 0.17, 2.48 ± 0.17 and 2.44 ± 0.17.
The like results for `c1ccccc1` [benzene] + CCCC[P+](CC)(CCCC)CCCC.CCOP(=O)([O-])OCC were, in that order, 0.871 ± 0.056, 0.863 ± 0.055, 0.855 ± 0.055, 0.847 ± 0.054 and 0.84 ± 0.054.
